A short description of the series: xn = mol fraction of the nth substance listed. The settings on record: 101.3 kPa, Liquid, Pycnometric method.

± gives the expanded uncertainty stated by the source.

These results are taken from the NIST ThermoML archive (doi:10.1016/j.jct.2014.04.012).

A word on the mass density: it is the mass of a sample divided by its volume. Consider `C[N+](C)(C)CCO.[Cl-]` [choline chloride] + OCCOCCO, for which the mass density by setting is: (293.15 K, x1 = 0.2) 1120.3 ± 1 kg/m3; (293.15 K, x1 = 0.25) 1122.4 ± 1 kg/m3; (303.15 K, x1 = 0.2) 1113 ± 1 kg/m3; (303.15 K, x1 = 0.25) 1117.9 ± 1 kg/m3; (313.15 K, x1 = 0.2) 1108.9 ± 1 kg/m3; (313.15 K, x1 = 0.25) 1113 ± 1 kg/m3. Also, the mass density runs as follows: (323.15 K, x1 = 0.2) 1103.2 ± 1 kg/m3; (323.15 K, x1 = 0.25) 1108.3 ± 1 kg/m3.
Consider `C[N+](C)(C)CCO.[Cl-]` [choline chloride] + Oc1ccccc1, for which the mass density runs as follows: (293.15 K, x1 = 0.2) 1091.3 ± 1 kg/m3; (293.15 K, x1 = 0.25) 1092.7 ± 1 kg/m3; (293.15 K, x1 = 0.333) 1096.6 ± 1 kg/m3; (303.15 K, x1 = 0.2) 1085.1 ± 1 kg/m3; (303.15 K, x1 = 0.25) 1087.3 ± 1 kg/m3; (303.15 K, x1 = 0.333) 1093.8 ± 1 kg/m3. Moreover, the mass density turned out to be 1081.1 ± 1 kg/m3 (313.15 K, x1 = 0.2); 1083.9 ± 1 kg/m3 (313.15 K, x1 = 0.25); 1087.2 ± 1 kg/m3 (313.15 K, x1 = 0.333); 1076 ± 1 kg/m3 (323.15 K, x1 = 0.2); 1079.5 ± 1 kg/m3 (323.15 K, x1 = 0.25); 1082.5 ± 1 kg/m3 (323.15 K, x1 = 0.333).
In the case of `OCCOCCOCCO` [triethylene glycol] + C[N+](C)(C)CCO.[Cl-], the mass density (293.15 K, x2 = 0.2) stood at 1120.3 ± 1.1 kg/m3; the mass density (293.15 K, x2 = 0.25) came to 1133.1 ± 1.1 kg/m3; the mass density (303.15 K, x2 = 0.2) amounted to 1114.6 ± 1.1 kg/m3; the mass density (303.15 K, x2 = 0.25) came to 1126.2 ± 1.1 kg/m3; the mass density (313.15 K, x2 = 0.2) is reported as 1108.9 ± 1.1 kg/m3; the mass density (313.15 K, x2 = 0.25) is reported as 1119.3 ± 1.1 kg/m3. Moreover, the mass density worked out at 1103.2 ± 1.1 kg/m3 (323.15 K, x2 = 0.2) and 1112.4 ± 1.1 kg/m3 (323.15 K, x2 = 0.25).
